{"source": "patent US20070219185A1", "about": "“Preventive or therapeutic agent for neuropathic pain” (priority 2004, published 2007)", "key": {"[1]": {"tested_on": "STZ-induced diabetic rats", "experiment": "Nociceptive threshold in STZ-induced diabetic rats (repeated administration), Randall-Selitto method", "format": "in vivo, rat", "details": "for Nociceptive threshold before administration / Nociceptive threshold after administration / nociceptive threshold following repeated administration for 14 days: Example 2; for Nociceptive threshold before administration / Nociceptive threshold after administration: 14 times, mean±SE; for Nociceptive threshold before administration: before the final administration; for Nociceptive threshold after administration: one hour after the final administration; for nociceptive threshold following repeated administration for 14 days: H group (clonidine 1.0 mg/kg subcutaneous; terbutaline 10 mg/kg oral), versus Control group; for nociceptive threshold after 14-day repeated, sole administration: Example 3, FIG. 1, L and M groups (clonidine 0.1, 0.3 mg/kg subcutaneous; terbutaline 1, 3 mg/kg oral)", "experimental": "Measurement of the Nociceptive Threshold in STZ-Induced Diabetic Rats (Repeated Administration)\nSTZ (50 mg/kg) was administered intravenously to male SD stain rats to induce diabetes mellitus. […] Normal and Control groups received the medium (0.5% methylcellulose). Before the final administration (before administration of test articles) and after the final administration (one hour after the administration), the nociceptive threshold against pressure stimulation given to the right hind-paw of rats was measured by Randall-Selitto method, and compared with that in Control group."}, "β2 AR": {"target": "T1, β2 AR (Rattus norvegicus, UniProt P10608)", "T1 construct": "the fascia of gravid uterus (β2 AR) as the sources of receptors; from tissue; host or cells: rat gravid uterus (fascia/membrane specimen)", "T1 sequence (P10608 whole entry)": "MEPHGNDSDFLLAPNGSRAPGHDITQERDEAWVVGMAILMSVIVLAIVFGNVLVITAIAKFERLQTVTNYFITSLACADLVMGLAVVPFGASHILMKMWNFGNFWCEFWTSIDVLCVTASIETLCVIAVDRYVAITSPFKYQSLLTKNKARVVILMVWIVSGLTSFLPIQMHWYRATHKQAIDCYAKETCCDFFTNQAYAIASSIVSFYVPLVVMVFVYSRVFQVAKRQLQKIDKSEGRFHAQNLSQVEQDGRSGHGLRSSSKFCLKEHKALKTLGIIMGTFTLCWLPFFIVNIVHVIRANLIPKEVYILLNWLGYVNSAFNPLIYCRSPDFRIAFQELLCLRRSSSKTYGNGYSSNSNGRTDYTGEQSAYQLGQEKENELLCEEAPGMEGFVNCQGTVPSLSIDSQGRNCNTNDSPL", "experiment": "Receptor binding test of β2 AR", "details": "3H-dihydroalprenolol; fascia of rat gravid uterus; read-out: binding affinity (IC50 value) to β2 AR", "experimental": "Receptor Binding Tests of α2 AR and β2 AR\nReceptor binding tests were conducted in ^3H-p-aminoclonidine and ^3H-dihydroalprenolol (3 rats in each) using specimens of the membrane of rat cerebral cortex (α2 AR) and the fascia of gravid uterus (β2 AR) as the sources of receptors. The binding ability of Compound 1 to α2 AR and β2 AR were obtained by calculating binding inhibition rates (IC50 values) of Compound 1 against the binding abilities of the above-mentioned tracers with both receptors."}, "Seltzer model rats [2]": {"tested_on": "Seltzer model rats", "experiment": "Nociceptive threshold in Seltzer model rats (single administration), Randall-Selitto method", "format": "in vivo, rat", "details": "Example 6, FIG. 3, 10 mg/kg oral, one hour after administration", "from_the_text": "Measurement of the Nociceptive Threshold in Seltzer Model Rats (Single Administration)\nTen, 9-week old male SD rats were anesthetized with pentobarbital (Nembutal injection®), and the right sciatic nerve was exposed. In Nerve ligation group (7 rats), half of the dorsal portion of the nerve was ligated using 5-0 nylon thread. In Normal group (3 rats), the sciatic nerve was only exposed. Three weeks after the model was created, the control group received the medium (0.5% methylcellulose) and Nerve ligation group was given orally test articles. Before the administration (before administration of test articles) and after administration (one hour after the administration of test articles), the nociceptive threshold against pressure stimulation given to the right hind-paw of rats was measured by Randall-Selitto method. Results before and after administration were compared."}, "[3]": {"tested_on": "STZ-induced diabetic rats", "experiment": "Nociceptive threshold in STZ-induced diabetic rats (single administration), Randall-Selitto method", "format": "in vivo, rat", "details": "for Nociceptive threshold before administration / Nociceptive threshold after administration: mean±SE; for Nociceptive threshold after administration: one hour after administration", "experimental": "Measurement of the Nociceptive Threshold in STZ-Induced Diabetic Rats (Single Administration)\nSTZ (50 mg/kg) was administered intravenously to male SD stain rats to induce diabetes mellitus. Test articles were administered 14 days later (10 rats in each group). Test articles used were clonidine as the α2 AR stimulant, terbutaline as the β2 AR stimulant and the above-mentioned Compound 1. Normal and Control groups received the medium (0.5% methylcellulose). Before and one hour after administration of test articles, the nociceptive threshold against pressure stimulation given to the right hind-paw of rats was measured by Randall-Selitto method, and compared with that in Control group."}, "Seltzer model rats [4]": {"tested_on": "Seltzer model rats", "experiment": "Nociceptive threshold in Seltzer model rats (repeated administration), Randall-Selitto method", "format": "in vivo, rat", "details": "Example 7, FIG. 4; 10 mg/kg oral, 14-day repeated", "experimental": "Measurement of the Nociceptive Threshold in Seltzer Model Rats (Repeated Administration)\nThirty, 7-week old male SD rats were anesthetized with pentobarbital (Nembutal injection®), and the right sciatic nerve was exposed. In the nerve ligation group (20 rats), half of the dorsal portion of the nerve was ligated using 6-0 silk thread. In the normal group (10 rats), the sciatic nerve was only exposed. Beginning the following day of the model creation, test articles were administered orally once a day, repeatedly, 14 times in total. Normal and Control groups received the medium (0.5% methyl-cellulose) and Nerve ligation group was given orally test articles. One hour after the final administration, the nociceptive threshold against pressure stimulation given to the right hind-paw of rats was measured by Randall-Selitto method, and compared with Control group."}, "[5]": {"details": "H group 1.0 mg/kg subcutaneous once a day"}, "[6]": {"details": "L group 0.1 mg/kg subcutaneous once a day"}, "[7]": {"details": "M group 0.3 mg/kg subcutaneous once a day"}, "[8]": {"details": "Example 1, H group 1.0 mg/kg subcutaneous"}, "[9]": {"details": "Example 1, L group 0.1 mg/kg subcutaneous"}, "[10]": {"details": "H group 10.0 mg/kg oral once a day"}, "[11]": {"details": "L group 1.0 mg/kg oral once a day"}, "[12]": {"details": "M group 3.0 mg/kg oral once a day"}, "[13]": {"details": "Example 1, H group 10.0 mg/kg oral"}, "[14]": {"details": "Example 1, L group 1.0 mg/kg oral"}}}
{"smiles": "CN(C)C(=O)COc1ccc2c(c1)C[C@@H](NC[C@H](O)c1ccc(O)c(CO)c1)CC2", "note": "[Compound 1, (-)-bis{2-[(2S)-2-[{(2R)-2-hydroxy-2-(4-hydroxy-3-hydroxymethyl-phenyl)ethyl}amino]-1,2,3,4-tetrahydronaphthalen-7-yloxy]-N,N-dimethylacetamide}sulfate dihydrate]", "values": [{"measurement": "nociceptive thresholds after administration, dose dependence", "setting": "[1]; Example 5, FIG. 2, 0.3, 1, 3 and 10 mg/kg oral, 14-day repeated", "value": "clearly increased dose-dependently beginning at dosage of 0.3 mg/kg"}, {"measurement": "nociceptive threshold compared with Normal group", "setting": "[1]; Example 5, FIG. 2, oral, 14-day repeated", "value": "improved the nociceptive threshold to the same level as in Normal group"}, {"measurement": "effect of repeated administration compared with single administration", "setting": "[1]; Example 5, oral, 14-day repeated versus single", "value": "stronger effect increasing the nociceptive threshold than single administration"}, {"measurement": "IC50", "setting": "β2 AR", "value": 0.014, "unit": "µM"}, {"measurement": "nociceptive threshold of Nerve ligation group in comparison with that before administration", "setting": "Seltzer model rats [2]", "value": "improved significantly"}, {"measurement": "Nociceptive threshold before administration", "setting": "[3]; Example 4, 0.3 mg/kg oral", "value": "71.8 ± 5.3", "unit": "g"}, {"measurement": "Nociceptive threshold after administration", "setting": "[3]; Example 4, 0.3 mg/kg oral", "value": "117.6 ± 10.7", "unit": "g"}, {"measurement": "Nociceptive threshold before administration", "setting": "[3]; Example 4, 1.0 mg/kg oral", "value": "95.0 ± 5.1", "unit": "g"}, {"measurement": "Nociceptive threshold after administration", "setting": "[3]; Example 4, 1.0 mg/kg oral", "value": "131.0 ± 12.3", "unit": "g"}, {"measurement": "analgesic effects", "setting": "[3]; Example 4, 3 mg/kg and 10 mg/kg oral", "value": "apparent analgesic effects"}, {"measurement": "Nociceptive threshold before administration", "setting": "[3]; Example 4, 3.0 mg/kg oral", "value": "92.0 ± 13.3", "unit": "g"}, {"measurement": "Nociceptive threshold after administration", "setting": "[3]; Example 4, 3.0 mg/kg oral", "value": "174.6 ± 15.4", "unit": "g"}, {"measurement": "Nociceptive threshold before administration", "setting": "[3]; Example 4, 10.0 mg/kg oral", "value": "89.0 ± 10.2", "unit": "g"}, {"measurement": "Nociceptive threshold after administration", "setting": "[3]; Example 4, 10.0 mg/kg oral", "value": "253.4 ± 28.3", "unit": "g"}, {"measurement": "nociceptive thresholds after administration, dose dependence", "setting": "[3]; Example 4, 0.3, 1, 3 and 10 mg/kg oral", "value": "increased dose-dependently"}, {"measurement": "nociceptive threshold of the right hind-paw in comparison with that of Control group", "setting": "Seltzer model rats [4]", "value": "improved significantly"}]}
{"smiles": "Clc1cccc(Cl)c1N=C1NCCN1", "note": "[Clonidine, clonidine]", "values": [{"measurement": "Nociceptive threshold before administration", "setting": "[1]; [5]", "value": "97.2 ± 14.5", "unit": "g"}, {"measurement": "Nociceptive threshold after administration", "setting": "[1]; [5]", "value": "254.4 ± 33.3", "unit": "g"}, {"measurement": "nociceptive threshold following repeated administration for 14 days", "setting": "[1]", "value": "increased significantly"}, {"measurement": "Nociceptive threshold before administration", "setting": "[1]; [6]", "value": "129.2 ± 15.9", "unit": "g"}, {"measurement": "Nociceptive threshold after administration", "setting": "[1]; [6]", "value": "180.6 ± 24.4", "unit": "g"}, {"measurement": "Nociceptive threshold before administration", "setting": "[1]; [7]", "value": "104.2 ± 13.8", "unit": "g"}, {"measurement": "Nociceptive threshold after administration", "setting": "[1]; [7]", "value": "115.2 ± 18.2", "unit": "g"}, {"measurement": "nociceptive threshold after 14-day repeated, sole administration", "setting": "[1]", "value": "in neither L groups or M groups of either test articles, the nociceptive threshold increased"}, {"measurement": "analgesic effect compared with Control group", "setting": "[3]; Example 1, H group 1.0 mg/kg subcutaneous, after administration", "value": "apparent analgesic effect"}, {"measurement": "Nociceptive threshold before administration", "setting": "[3]; [8]", "value": "115.4 ± 8.9", "unit": "g"}, {"measurement": "Nociceptive threshold after administration", "setting": "[3]; [8]", "value": "325.8 ± 29.8", "unit": "g"}, {"measurement": "Nociceptive threshold before administration", "setting": "[3]; [9]", "value": "122.8 ± 7.5", "unit": "g"}, {"measurement": "Nociceptive threshold after administration", "setting": "[3]; [9]", "value": "155.8 ± 16.3", "unit": "g"}]}
{"smiles": "CC(C)(C)NCC(O)c1cc(O)cc(O)c1", "note": "(centres unmarked) [Terbutaline, terbutaline]", "values": [{"measurement": "Nociceptive threshold before administration", "setting": "[1]; [10]", "value": "228.2 ± 11.1", "unit": "g"}, {"measurement": "Nociceptive threshold after administration", "setting": "[1]; [10]", "value": "229.0 ± 14.8", "unit": "g"}, {"measurement": "nociceptive threshold following repeated administration for 14 days", "setting": "[1]", "value": "increased significantly"}, {"measurement": "Nociceptive threshold before administration", "setting": "[1]; [11]", "value": "113.8 ± 11.9", "unit": "g"}, {"measurement": "Nociceptive threshold after administration", "setting": "[1]; [11]", "value": "115.2 ± 12.6", "unit": "g"}, {"measurement": "Nociceptive threshold before administration", "setting": "[1]; [12]", "value": "155.4 ± 32.0", "unit": "g"}, {"measurement": "Nociceptive threshold after administration", "setting": "[1]; [12]", "value": "167.8 ± 32.3", "unit": "g"}, {"measurement": "nociceptive threshold after 14-day repeated, sole administration", "setting": "[1]", "value": "in neither L groups or M groups of either test articles, the nociceptive threshold increased"}, {"measurement": "Nociceptive threshold before administration", "setting": "[3]; [13]", "value": "122.6 ± 14.5", "unit": "g"}, {"measurement": "Nociceptive threshold after administration", "setting": "[3]; [13]", "value": "146.8 ± 20.7", "unit": "g"}, {"measurement": "Nociceptive threshold before administration", "setting": "[3]; [14]", "value": "134.2 ± 6.3", "unit": "g"}, {"measurement": "Nociceptive threshold after administration", "setting": "[3]; [14]", "value": "152.8 ± 12.7", "unit": "g"}]}
